{"source": "PubChem BioAssay AID2060492", "about": "(Molecular Pharmacology Branch, DTP, NCI, 2025);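 also: spheroids exposed to compounds for seven days before readout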", "system": "695427-040-R-J1-PDC complex spheroids, viability percent T/C", "test": "Anticancer human tumor 695427-040-R-J1-PDC patient-derived colon adenocarcinoma cell line growth inhibition [GQUAD]", "conditions": "for IC50: curve of first compound; for viability, T/C: stronger effect = lower value", "procedure,_shortened": "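Multi-cell-type spheroids of tumor cells with HUVEC and mesenchymal stem cells, treated with drug combinations. Concentrations descend in half-log steps from near clinical Cmax, or from 10 microM where Cmax is unknown; viability read-out.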", "key": {"[1]": {"conditions": "second compound 0.0316 µM, first compound 0.0316 µM"}, "[2]": {"conditions": "second compound 0.0316 µM, first compound 0.1 µM"}, "[3]": {"conditions": "second compound 0.0316 µM, first compound 0.316 µM"}, "[4]": {"conditions": "second compound 0.0316 µM, first compound 1 µM"}, "[5]": {"conditions": "second compound 0.0316 µM, first compound 3.16 µM"}, "[6]": {"conditions": "second compound 0.0316 µM, first compound 10 µM"}, "[7]": {"conditions": "second compound 0.1 µM, first compound 0.0316 µM"}, "[8]": {"conditions": "second compound 0.1 µM, first compound 0.1 µM"}, "[9]": {"conditions": "second compound 0.1 µM, first compound 0.316 µM"}, "[10]": {"conditions": "second compound 0.1 µM, first compound 1 µM"}, "[11]": {"conditions": "second compound 0.1 µM, first compound 3.16 µM"}, "[12]": {"conditions": "second compound 0.1 µM, first compound 10 µM"}, "[13]": {"conditions": "second compound 0.316 µM, first compound 0.0316 µM"}, "[14]": {"conditions": "second compound 0.316 µM, first compound 0.1 µM"}, "[15]": {"conditions": "second compound 0.316 µM, first compound 0.316 µM"}, "[16]": {"conditions": "second compound 0.316 µM, first compound 1 µM"}, "[17]": {"conditions": "second compound 0.316 µM, first compound 3.16 µM"}, "[18]": {"conditions": "second compound 0.316 µM, first compound 10 µM"}, "[19]": {"conditions": "second compound 1 µM, first compound 0.0316 µM"}, "[20]": {"conditions": "second compound 1 µM, first compound 0.1 µM"}, "[21]": {"conditions": "second compound 1 µM, first compound 0.316 µM"}, "[22]": {"conditions": "second compound 1 µM, first compound 1 µM"}, "[23]": {"conditions": "second compound 1 µM, first compound 3.16 µM"}, "[24]": {"conditions": "second compound 1 µM, first compound 10 µM"}, "[25]": {"conditions": "second compound 3.16 µM, first compound 0.0316 µM"}, "[26]": {"conditions": "second compound 3.16 µM, first compound 0.1 µM"}, "[27]": {"conditions": "second compound 3.16 µM, first compound 0.316 µM"}, "[28]": {"conditions": "second compound 3.16 µM, first compound 1 µM"}, "[29]": {"conditions": "second compound 3.16 µM, first compound 3.16 µM"}, "[30]": {"conditions": "second compound 3.16 µM, first compound 10 µM"}, "[31]": {"conditions": "second compound 10 µM, first compound 0.0316 µM"}, "[32]": {"conditions": "second compound 10 µM, first compound 0.1 µM"}, "[33]": {"conditions": "second compound 10 µM, first compound 0.316 µM"}, "[34]": {"conditions": "second compound 10 µM, first compound 1 µM"}, "[35]": {"conditions": "second compound 10 µM, first compound 3.16 µM"}, "[36]": {"conditions": "second compound 10 µM, first compound 10 µM"}}}
{"smiles": "COc1cccc2c1C(=O)c1c(O)c3c(c(O)c1C2=O)CC(O)(C(=O)CO)CC3OC1CC(N)C(O)C(C)O1", "note": "(centres undefined) + Cc1[nH]c2ccc(F)cc2c1-c1nc2c3cccnc3c3ncccc3c2[nH]1", "values": [{"measurement": "IC50", "setting": "second compound 0.0316 µM", "result": "> 10", "unit": "µM"}, {"measurement": "IC50", "setting": "second compound 0.1 µM", "result": "> 10", "unit": "µM"}, {"measurement": "IC50", "setting": "second compound 0.316 µM", "result": "> 10", "unit": "µM"}, {"measurement": "IC50", "setting": "second compound 1 µM", "result": "> 10", "unit": "µM"}, {"measurement": "IC50", "setting": "second compound 3.16 µM", "result": 4.85, "unit": "µM"}, {"measurement": "IC50", "setting": "second compound 10 µM", "result": 5.56, "unit": "µM"}, {"measurement": "viability, T/C", "setting": "[1]", "result": 98.6, "unit": "%"}, {"measurement": "viability, T/C", "setting": "[2]", "result": 88.4, "unit": "%"}, {"measurement": "viability, T/C", "setting": "[3]", "result": 96.9, "unit": "%"}, {"measurement": "viability, T/C", "setting": "[4]", "result": 87.1, "unit": "%"}, {"measurement": "viability, T/C", "setting": "[5]", "result": 60.6, "unit": "%"}, {"measurement": "viability, T/C", "setting": "[6]", "result": 50.7, "unit": "%"}, {"measurement": "viability, T/C", "setting": "[7]", "result": 104, "unit": "%"}, {"measurement": "viability, T/C", "setting": "[8]", "result": 98.8, "unit": "%"}, {"measurement": "viability, T/C", "setting": "[9]", "result": 91.3, "unit": "%"}, {"measurement": "viability, T/C", "setting": "[10]", "result": 71.9, "unit": "%"}, {"measurement": "viability, T/C", "setting": "[11]", "result": 74.4, "unit": "%"}, {"measurement": "viability, T/C", "setting": "[12]", "result": 48.9, "unit": "%"}, {"measurement": "viability, T/C", "setting": "[13]", "result": 95.2, "unit": "%"}, {"measurement": "viability, T/C", "setting": "[14]", "result": 77.9, "unit": "%"}, {"measurement": "viability, T/C", "setting": "[15]", "result": 87.1, "unit": "%"}, {"measurement": "viability, T/C", "setting": "[16]", "result": 73.8, "unit": "%"}, {"measurement": "viability, T/C", "setting": "[17]", "result": 71.5, "unit": "%"}, {"measurement": "viability, T/C", "setting": "[18]", "result": 49.6, "unit": "%"}, {"measurement": "viability, T/C", "setting": "[19]", "result": 83, "unit": "%"}, {"measurement": "viability, T/C", "setting": "[20]", "result": 92.4, "unit": "%"}, {"measurement": "viability, T/C", "setting": "[21]", "result": 78.8, "unit": "%"}, {"measurement": "viability, T/C", "setting": "[22]", "result": 72.5, "unit": "%"}, {"measurement": "viability, T/C", "setting": "[23]", "result": 71.2, "unit": "%"}, {"measurement": "viability, T/C", "setting": "[24]", "result": 49.6, "unit": "%"}, {"measurement": "viability, T/C", "setting": "[25]", "result": 59.6, "unit": "%"}, {"measurement": "viability, T/C", "setting": "[26]", "result": 86.8, "unit": "%"}, {"measurement": "viability, T/C", "setting": "[27]", "result": 70.4, "unit": "%"}, {"measurement": "viability, T/C", "setting": "[28]", "result": 59.4, "unit": "%"}, {"measurement": "viability, T/C", "setting": "[29]", "result": 56.8, "unit": "%"}, {"measurement": "viability, T/C", "setting": "[30]", "result": 42.5, "unit": "%"}, {"measurement": "viability, T/C", "setting": "[31]", "result": 65.9, "unit": "%"}, {"measurement": "viability, T/C", "setting": "[32]", "result": 80.1, "unit": "%"}, {"measurement": "viability, T/C", "setting": "[33]", "result": 65, "unit": "%"}, {"measurement": "viability, T/C", "setting": "[34]", "result": 70.9, "unit": "%"}, {"measurement": "viability, T/C", "setting": "[35]", "result": 62.2, "unit": "%"}, {"measurement": "viability, T/C", "setting": "[36]", "result": 37, "unit": "%"}]}
{"smiles": "C=CCn1c(=O)c2cnc(Nc3ccc(N4CCN(C)CC4)cc3)nc2n1-c1cccc(C(C)(C)O)n1", "note": "+ CN(C)c1ccc(Nc2c3ccc(NC(=O)CCN4CCCC4)cc3nc3cc(NC(=O)CCN4CCCC4)ccc23)cc1", "values": [{"measurement": "IC50", "setting": "second compound 0.0316 µM", "result": "> 10", "unit": "µM"}, {"measurement": "IC50", "setting": "second compound 0.1 µM", "result": "> 10", "unit": "µM"}, {"measurement": "IC50", "setting": "second compound 0.316 µM", "result": "> 10", "unit": "µM"}, {"measurement": "IC50", "setting": "second compound 1 µM", "result": "> 10", "unit": "µM"}, {"measurement": "IC50", "setting": "second compound 3.16 µM", "result": 8.77, "unit": "µM"}, {"measurement": "IC50", "setting": "second compound 10 µM", "result": 5.2, "unit": "µM"}, {"measurement": "viability, T/C", "setting": "[1]", "result": 104, "unit": "%"}, {"measurement": "viability, T/C", "setting": "[2]", "result": 104, "unit": "%"}, {"measurement": "viability, T/C", "setting": "[3]", "result": 87.5, "unit": "%"}, {"measurement": "viability, T/C", "setting": "[4]", "result": 83.2, "unit": "%"}, {"measurement": "viability, T/C", "setting": "[5]", "result": 66.6, "unit": "%"}, {"measurement": "viability, T/C", "setting": "[6]", "result": 61.7, "unit": "%"}, {"measurement": "viability, T/C", "setting": "[7]", "result": 97.8, "unit": "%"}, {"measurement": "viability, T/C", "setting": "[8]", "result": 93.9, "unit": "%"}, {"measurement": "viability, T/C", "setting": "[9]", "result": 93.2, "unit": "%"}, {"measurement": "viability, T/C", "setting": "[10]", "result": 77.4, "unit": "%"}, {"measurement": "viability, T/C", "setting": "[11]", "result": 71.2, "unit": "%"}, {"measurement": "viability, T/C", "setting": "[12]", "result": 59.3, "unit": "%"}, {"measurement": "viability, T/C", "setting": "[13]", "result": 101, "unit": "%"}, {"measurement": "viability, T/C", "setting": "[14]", "result": 89.1, "unit": "%"}, {"measurement": "viability, T/C", "setting": "[15]", "result": 85.9, "unit": "%"}, {"measurement": "viability, T/C", "setting": "[16]", "result": 85.2, "unit": "%"}, {"measurement": "viability, T/C", "setting": "[17]", "result": 72.8, "unit": "%"}, {"measurement": "viability, T/C", "setting": "[18]", "result": 53.3, "unit": "%"}, {"measurement": "viability, T/C", "setting": "[19]", "result": 95.5, "unit": "%"}, {"measurement": "viability, T/C", "setting": "[20]", "result": 103, "unit": "%"}, {"measurement": "viability, T/C", "setting": "[21]", "result": 81.9, "unit": "%"}, {"measurement": "viability, T/C", "setting": "[22]", "result": 77.2, "unit": "%"}, {"measurement": "viability, T/C", "setting": "[23]", "result": 66.9, "unit": "%"}, {"measurement": "viability, T/C", "setting": "[24]", "result": 52.3, "unit": "%"}, {"measurement": "viability, T/C", "setting": "[25]", "result": 95.2, "unit": "%"}, {"measurement": "viability, T/C", "setting": "[26]", "result": 91.3, "unit": "%"}, {"measurement": "viability, T/C", "setting": "[27]", "result": 87.9, "unit": "%"}, {"measurement": "viability, T/C", "setting": "[28]", "result": 80.9, "unit": "%"}, {"measurement": "viability, T/C", "setting": "[29]", "result": 63.8, "unit": "%"}, {"measurement": "viability, T/C", "setting": "[30]", "result": 48.3, "unit": "%"}, {"measurement": "viability, T/C", "setting": "[31]", "result": 91.6, "unit": "%"}, {"measurement": "viability, T/C", "setting": "[32]", "result": 84.1, "unit": "%"}, {"measurement": "viability, T/C", "setting": "[33]", "result": 82.3, "unit": "%"}, {"measurement": "viability, T/C", "setting": "[34]", "result": 67.8, "unit": "%"}, {"measurement": "viability, T/C", "setting": "[35]", "result": 56.4, "unit": "%"}, {"measurement": "viability, T/C", "setting": "[36]", "result": 42, "unit": "%"}]}
